Data taken from ChEMBL document CHEMBL1130508, “Synthesis of 7-membered cyclic hydroxyguanidines: Novel HIV-1 protease inhibitors” (Bioorg Med Chem Lett, 1997).

Biological target: Human immunodeficiency virus type 1 protease (Human immunodeficiency virus 1, UniProt Q72874)
Experiment: The compound was evaluated for its inhibition constant against HIV-1 protease (HIV PR)

Ki [nM]	Compound
3000	O[C@@H]1[C@@H](O)[C@@H](Cc2ccccc2)N(Cc2ccccc2)C(=NOCc2ccccc2)N(Cc2ccccc2)[C@@H]1Cc1ccccc1
42	ON=C1N(Cc2ccccc2)[C@H](Cc2ccccc2)[C@H](O)[C@@H](O)[C@@H](Cc2ccccc2)N1Cc1ccccc1
